Source: patent US20120202819A1, “COMBINATION THERAPY USING A BETA 3 […] RECEPTOR AGONISTS AND AN […] AGENT” (Merck Sharp & Dohme Corporation, priority 2009, published 2012)
Like-named read-outs stand apart in the source and are kept apart here.

Key:
[1] = target: T1, human β3 adrenergic receptor (Homo sapiens, UniProt P13945); assay: Functional assay: cAMP production in CHO cells transfected with cloned β-adrenergic receptor; assay type: cell-based
T1 construct: expressed in transfected cells; host or cells: Chinese hamster ovary (CHO) cells, stably transfected
Experimental: Biological Assays for β3 Functional Activities: The following in vitro assays are suitable for screening compounds that have selective β3 agonist activity:
Functional Assay: cAMP production in response to ligand is measured according to Barton, et al. (1991, Agonist-induced desensitization of D2 dopamine receptors in human Y-79 retinoblastoma cells. Mol. Pharmacol. […]) modified as follows. cAMP production is measured using a homogenous time-resolved fluorescence resonance energy transfer immunoassay (LANCE™, Perkin Elmer) according to the manufacture's instructions. Chinese hamster ovary (CHO) cells, stably transfected with the cloned 13-adrenergic receptor (β1, β2 or β3) are harvested after 3 days of subculturing. Harvesting of cells is done with Enzyme-free Dissociation Media (Specialty Media). Cells are then counted and resuspended in assay buffer (Hank's Balanced salt solution supplemented with 5 mM HEPES, 0.1% BSA) containing a phosphodiesterase inhibitor (IBMX, 0.6 mM). The reaction is initiated by mixing 6,000 cells in 6 with 6 μL Alexa Fluor labeled cAMP antibody (LANCE™ kit) which is then added to an assay well containing 12 μL of compound (diluted in assay buffer to 2× final concentration). The reaction proceeds for 30 min at room temperature and is terminated by the addition of 24 detection buffer (LANCE™ kit). The assay plate is then incubated for 1 h at room temperature and time-resolved fluorescence measured on a Perkin Elmer Envision reader or equivalent. The unknown cAMP level is determined by comparing fluorescence levels to a cAMP standard curve.
The non-selective, full agonist 13-adrenergic ligand isoproterenol is used at all three receptors to determine maximal stimulation. The human β3 adrenergic receptor (AR) selective ligand (S)-N-[4-[2-[[2-hydroxy-3-(4-hydroxyphenoxy)propyl]amino]ethyl]-phenyl]-4-iodobenzenesulfonamide is used as a control in all assays. […] Data are analyzed using Microsoft Excel and Graphpad Prism or an internally developed data analysis software package.

[2] = system: EFS-induced isolated detrusor muscle contractions; assay: EFS-induced contraction of isolated rat detrusor muscle strips, with isobologram analysis; design: species or system Sprague-Dawley rats
Experimental: Male adult Sprague-Dawley rats were used. After euthanizing using CO2 gas, a whole bladder was removed. Longitudinal strips (about 6 mm×3 mm) of the extratrigonal portion of the detrusor muscle were prepared. […] The strips were tied at one end to the organ bath, and connected at the other end to an isometric transducer (AD Instruments) under a resting tension of 10 mN. The responses of the preparations were recorded at a sampling rate of 10 Hz by a multiple channel data acquisition system (PowerLab, AD Instruments), and measured with an analysis software (Chart, AD Instruments). After the equilibration period for at least 60 min, each tissue strip was challenged to electrical field stimulation (EFS) at 60 Hz; duration, 0.3 ms; 3 sec; 90 V to induce contractions. Upon obtaining stable contractions with EFS, compound solution (25 μL) was applied into organ bath in a cumulative manner. After 15 min of each compound treatment, EFS was applied.
Isobologram Analysis was used to evaluate the synergic effect of a combination therapy. Isobologram Analysis provides a visual assessment of the interaction of two different agents using independent statistical analysis. The statistical analysis can be accomplished from calculations of certain potency indices from single treatment of each compound and fixed-ratio combinations for the same effect.
Isobologram for some particular effect (e.g., 50% of the maximum) in which the dose of active agent A alone is A=20 and active agent B alone is B=100. The straight line connecting these intercept points (additivity line) is the locus of all dose pairs that, based on these potencies, should give the same effect, An actual dose pair such as point Q attains this effect with lesser quantities and is synergistic (or super-additive), while the dose pair denoted by point R means greater quantities are required and is therefore sub-additive.

bladder capacity = assay: Bladder capacity (cystometry) in anesthetized rhesus monkeys; assay type: in vivo, rhesus monkeys (Macaca mulatta); settings: mean of 4-6 animals
Description: Adult female rhesus monkeys (Macaca mulatta) weighed 5.3-6.2 kg (4-7 year-old) were used. The subjects were either paired or individually housed on a 12-h light/12-h dark cycle (lights on at 7:00 AM). Their diet consisted of 2050 Teklad (Harlan Laboratories, Indianapolis, Ind.) and fresh fruit or vegetable. Water was freely available. All animals were observed daily by a veterinary technician and caretakers for signs of ill health. Subjects were repeatedly used with >13-day resting period. Monkeys were anesthetized with an intramuscular injection of either Telazol (3-5 mg/kg) or ketamine (10-20 mg/kg) followed by intravenous constant rate infusion with ketamine (0.2-0,8 mg/kg/min) using a syringe pump (552222, Harvard Apparatus, Holliston, Mass.). Animals were placed in a supine position and a triple lumen balloon transurethral catheter (7.4 Fr, Cook Medical, Bloomington, Ind.) was inserted into the bladder and the balloon was inflated with 1 mL of water to secure the tip of catheter at the bladder base. The catheter was connected with an infusion pump (Gemini PC-2TX, ALARIS Medical Systems, San Diego, Calif.) for bladder filling and a pressure transducer for intravesical pressure monitoring. Intravesical pressure was continuously recorded using a multiple channel data acquisition system (Power lab, AD Instruments, Biopac systems, Colorado Springs, Colo.) at a sampling rate of 20 Hz. After confirming bladder emptiness by an ultrasonography (Logiq e vet, GE Medical Systems, Waukesha, Wis., FIG. 1A), saline was intravesically infused at 15 mL/min. When the steep rise in pressure indicative of the micturition reflex was observed, intravesical infusion was stopped and the bladder was manually emptied with a 60 ml syringe.
After two baseline cystometry readings, drug was intravenously administered three times using a rising dose paradigm with a cystometry performed 10 min after each dose. Bladder capacity was measured for each cystometry and % change from the baseline capacity was calculated. As used herein, the term “baseline capacity” or “baseline” means the average bladder capacity from two pre-dose measurements.
The reported results are mean values of % change from baseline in 4-6 animals.

muscarinic receptor M4 = target: T2, muscarinic receptor M4 (Homo sapiens, UniProt P08173); settings: Ohtake et al.; cited from earlier work
T2 sequence (P08173 1-479): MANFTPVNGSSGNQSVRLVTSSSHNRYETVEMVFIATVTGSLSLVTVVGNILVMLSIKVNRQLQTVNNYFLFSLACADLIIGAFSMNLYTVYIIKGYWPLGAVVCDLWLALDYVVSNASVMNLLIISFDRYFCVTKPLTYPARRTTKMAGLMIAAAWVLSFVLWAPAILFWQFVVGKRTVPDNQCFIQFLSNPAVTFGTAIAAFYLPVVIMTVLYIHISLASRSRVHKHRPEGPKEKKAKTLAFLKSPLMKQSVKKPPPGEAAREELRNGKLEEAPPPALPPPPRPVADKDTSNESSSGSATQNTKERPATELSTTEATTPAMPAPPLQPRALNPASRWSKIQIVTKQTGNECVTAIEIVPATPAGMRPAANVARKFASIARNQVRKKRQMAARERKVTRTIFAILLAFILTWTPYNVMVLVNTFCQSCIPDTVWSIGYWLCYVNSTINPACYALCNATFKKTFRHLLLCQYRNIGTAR

[3] = cAMP, CHO cells, read-out: human β3 functional activity
[4] = human β3 functional activity, read-out: HUMAN β3 BINDING

T1 sequence (P13945 whole entry): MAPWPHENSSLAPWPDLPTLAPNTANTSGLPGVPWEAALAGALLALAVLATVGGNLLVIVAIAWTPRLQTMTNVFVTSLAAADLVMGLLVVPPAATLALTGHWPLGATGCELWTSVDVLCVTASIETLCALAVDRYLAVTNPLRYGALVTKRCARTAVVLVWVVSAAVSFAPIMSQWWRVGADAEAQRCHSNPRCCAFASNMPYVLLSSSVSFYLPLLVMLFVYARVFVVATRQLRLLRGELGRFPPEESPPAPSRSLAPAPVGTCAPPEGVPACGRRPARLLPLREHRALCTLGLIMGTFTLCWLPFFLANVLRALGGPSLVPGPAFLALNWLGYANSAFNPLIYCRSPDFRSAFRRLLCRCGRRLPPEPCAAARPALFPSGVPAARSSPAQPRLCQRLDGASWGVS

SMILES | EC50 [1, 3] [nM] | EC50 [1, 4] [nM] | further results
Nc1nc(CC(=O)Nc2ccc(CC3CC[C@H]([C@H](O)c4ccccc4)N3)cc2)cs1 (stereo partly drawn) [Compound 1, 2-(2-Amino-1,3-thiazol-4-yl)-N-[4-({(5R)-[(R)-hydroxy(phenyl)methyl]pyrrolidinyl}methyl)phenyl]acetamide] | 1 to 10 | – | –
O=C(Cn1cnc2ccccc2c1=O)Nc1ccc(C[C@@H]2CC[C@H]([C@H](O)c3ccccc3)N2)cc1 [Compound 4] | – | 1 to 10 | –
O=C(Cn1ncccc1=O)Nc1ccc(C[C@@H]2CC[C@H]([C@H](O)c3ccccc3)N2)cc1 [Compound 5] | – | 1 to 10 | –
Cc1cnn(CC(=O)Nc2ccc(C[C@@H]3CC[C@H]([C@H](O)c4ccccc4)N3)cc2)c(=O)c1 [Compound 6] | – | 1 to 10 | –
O=C(Cn1cnccc1=O)Nc1ccc(C[C@@H]2CC[C@H]([C@H](O)c3ccccc3)N2)cc1 [Compound 9] | – | 1 to 10 | –
O=C(Nc1ccc(C[C@@H]2CC[C@H]([C@H](O)c3ccccc3)N2)cc1)[C@@H]1CCc2nccc(=O)n21 [Compound 14, (6S)-N-[4-({(2S, 5R)-5-[(R)-hydroxy(phenyl)methyl]pyrrolidin-2-yl}methyl)phenyl]-4-oxo-4,6,7,8-tetrahydropyrrolo[1,2-α]pyrimidine-6-carboxamide] | 11 to 100 | – | Bladder capacity, % change from baseline (bladder capacity; mono-therapy 0.003 mg/kg iv): 4.1%; Bladder capacity, % change from baseline (bladder capacity; mono-therapy 0.003 mg/kg iv, listed as Cpd 14): 4.1%; Bladder capacity, % change from baseline (bladder capacity; mono-therapy 0.01 mg/kg iv): 18.0%; Bladder capacity, % change from baseline (bladder capacity; mono-therapy 0.03 mg/kg iv): 27.3%; Bladder capacity, % change from baseline (bladder capacity; mono-therapy 0.1 mg/kg iv): 33.9%; Bladder capacity, % change from baseline (bladder capacity; mono-therapy 0.3 mg/kg iv): 31%; Bladder capacity, % change from baseline (bladder capacity; mono-therapy 1 mg/kg iv): 55.9%
NC(=O)C(c1ccccc1)(c1ccccc1)[C@@H]1CCN(CCc2ccc3c(c2)CCO3)C1 [Darifenacin, (S)-2-[1-[2-(2,3-dihydrobenzofuran-5-yl)ethyl]pyrrolidin-3-yl]-2,2-diphenyl-acetamide] | – | – | Bladder capacity, % change from baseline (bladder capacity; mono-therapy 0.01 mg/kg iv): 8.9%; Bladder capacity, % change from baseline (bladder capacity; mono-therapy 0.03 mg/kg iv): 18.3%; Bladder capacity, % change from baseline (bladder capacity; mono-therapy 0.1 mg/kg iv): 29.4%; Ki (muscarinic receptor M4): 52 ± 15 nM

More lines, main results first:

EC50 [1, 3] [nM] | EC50 [1, 4] [nM] | SMILES | further results
1 to 10 | – | Nc1nc(CC(=O)Nc2ccc(C[C@@H]3CC[C@H]([C@H](O)c4ccccc4)N3)cc2)cs1 [Compound 2, 2-(2-Amino-1,3-thiazol-4-yl)-N-[4-({(2S, 5R)-[(R)-hydroxy(phenyl)methyl]pyrrolidinyl}methyl)phenyl]acetamide] | –
< 1 | – | Nc1nc2c(s1)CCC2C(=O)Nc1ccc(C[C@@H]2CC[C@H]([C@H](O)c3ccccc3)N2)cc1 (stereo partly drawn) [Compound 3] | –
– | 1 to 10 | O=C(Cn1ncc2ccccc2c1=O)Nc1ccc(C[C@@H]2CC[C@H]([C@H](O)c3ccccc3)N2)cc1 [Compound 7] | –
– | 1 to 10 | O=C(Cn1cccnc1=O)Nc1ccc(C[C@@H]2CC[C@H]([C@H](O)c3ccccc3)N2)cc1 [Compound 8] | –
– | 1 to 10 | O=C(Cn1ccccc1=O)Nc1ccc(C[C@@H]2CC[C@H]([C@H](O)c3ccccc3)N2)cc1 [Compound 10] | –
1 to 10 | – | Cc1ncn(C(C)C(=O)Nc2ccc(C[C@@H]3CC[C@H]([C@H](O)c4ccccc4)N3)cc2)n1 (stereo partly drawn) [Compound 11] | –
1 to 10 | – | O=C(Nc1ccc(C[C@@H]2CC[C@H]([C@H](O)c3ccccc3)N2)cc1)[C@@H]1CCc2cccc(=O)n21 [Compound 12, (3S)-N-[4-({(2S,5R)-5-[(R)-hydroxy(phenyl)methyl]pyrrolidin-2-yl}methyl)phenyl]-5-oxo-1,2,3,5-tetrahydroindolizine-3-carboxamide] | times less potent than CL316243 (IC25) ([2]; inhibiting EFS-induced contraction of rat bladder strips): ~100 times; IC25 (concentration which induced 25% inhibition of detrusor contraction) ([2]; single compound, rat bladder strips, EFS): 275 nM
< 1 | – | O=C(Nc1ccc(C[C@@H]2CC[C@H]([C@H](O)c3ccccc3)N2)cc1)[C@H]1CCc2cccc(=O)n21 [Compound 13, (3R)-N-[4-({(2S,5R)-5-[(R)-hydroxy(phenyl)methyl]pyrrolidin-2-yl}methyl)phenyl]-5-oxo-1,2,3,5-tetrahydroindolizine-3-carboxamide] | –
